{
  "source": "the supplement of paper PMC10307832",
  "assay_in_all_cases": "relative viability (nuclei count vs DMSO), 5 days (fraction); higher = more cells survive",
  "key": {"HOP-62": {"tested_on": "HOP-62", "outline": "(§1)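 Lung cancer cell lines in 1536-well plates were dosed by pin tool the day after seeding, either with one drug alone or with a fixed anchor-drug dose plus five library-drug doses (not always all listed) in √10 steps. After 5 days, cells were fixed and their nuclei stained in one step (final 0.05% Triton X-100, 1% formaldehyde, 1 ug/ml Hoechst), then counted on 4× images. Relative viability is the nuclei count in treated wells divided by that in vehicle wells. Values are medians of duplicate plates.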"}, "NCI-H647": {"tested_on": "NCI-H647", "outline": "as §1"}, "LOU-NH91": {"tested_on": "LOU-NH91", "outline": "as §1"}, "NCI-H460": {"tested_on": "NCI-H460", "outline": "as §1"}, "RERF-LC-KJ": {"tested_on": "RERF-LC-KJ", "outline": "as §1"}, "NCI-H1755": {"tested_on": "NCI-H1755", "outline": "as §1"}, "NCI-H1734": {"tested_on": "NCI-H1734", "outline": "as §1"}, "NCI-H1915": {"tested_on": "NCI-H1915", "outline": "as §1"}, "SW 1573": {"tested_on": "SW 1573", "outline": "as §1"}, "A-427": {"tested_on": "A-427", "outline": "as §1"}, "NCI-H1792": {"tested_on": "NCI-H1792", "outline": "as §1"}, "LC-2-ad": {"tested_on": "LC-2-ad", "outline": "as §1"}, "PC-3 [JPC-3]": {"tested_on": "PC-3 [JPC-3]", "outline": "as §1"}, "HCC-78": {"tested_on": "HCC-78", "outline": "as §1"}, "NCI-H2126": {"tested_on": "NCI-H2126", "outline": "as §1"}, "HCC-15": {"tested_on": "HCC-15", "outline": "as §1"}, "NCI-H1975": {"tested_on": "NCI-H1975", "outline": "as §1"}, "LXF-289": {"tested_on": "LXF-289", "outline": "as §1"}, "SK-LU-1": {"tested_on": "SK-LU-1", "outline": "as §1"}, "NCI-H358": {"tested_on": "NCI-H358", "outline": "as §1"}, "NCI-H2228": {"tested_on": "NCI-H2228", "outline": "as §1"}, "NCI-H2347": {"tested_on": "NCI-H2347", "outline": "as §1"}},
  "data": [
    {"smiles": "O=C(O)c1ccc(-c2c[nH]c3ncc(-c4ccccc4)cc23)cc1C1CCCC1", "note": "+ Cc1nc(NC(=O)N2CCC[C@H]2C(N)=O)sc1-c1ccnc(C(C)(C)C(F)(F)F)c1 [Alpelisib] (partner 2 µM)", "values": [
      {"measurement": "relative viability", "setting": "HOP-62; first compound 0.04 µM", "value": 0.709},
      {"measurement": "relative viability", "setting": "HOP-62; first compound 0.1265 µM", "value": 1.02},
      {"measurement": "relative viability", "setting": "HOP-62; first compound 0.4 µM", "value": 0.942},
      {"measurement": "relative viability", "setting": "HOP-62; first compound 1.265 µM", "value": 0.922},
      {"measurement": "relative viability", "setting": "NCI-H647; first compound 0.04 µM", "value": 1.14},
      {"measurement": "relative viability", "setting": "NCI-H647; first compound 0.1265 µM", "value": 1.24},
      {"measurement": "relative viability", "setting": "NCI-H647; first compound 0.4 µM", "value": 1.02},
      {"measurement": "relative viability", "setting": "NCI-H647; first compound 1.265 µM", "value": 0.766},
      {"measurement": "relative viability", "setting": "LOU-NH91; first compound 0.04 µM", "value": 0.756},
      {"measurement": "relative viability", "setting": "LOU-NH91; first compound 0.1265 µM", "value": 0.803},
      {"measurement": "relative viability", "setting": "LOU-NH91; first compound 0.4 µM", "value": 0.68},
      {"measurement": "relative viability", "setting": "LOU-NH91; first compound 1.265 µM", "value": 0.608},
      {"measurement": "relative viability", "setting": "NCI-H460; first compound 0.04 µM", "value": 0.518},
      {"measurement": "relative viability", "setting": "NCI-H460; first compound 0.1265 µM", "value": 0.607},
      {"measurement": "relative viability", "setting": "NCI-H460; first compound 0.4 µM", "value": 0.483},
      {"measurement": "relative viability", "setting": "NCI-H460; first compound 1.265 µM", "value": 0.416},
      {"measurement": "relative viability", "setting": "RERF-LC-KJ; first compound 0.04 µM", "value": 0.838},
      {"measurement": "relative viability", "setting": "RERF-LC-KJ; first compound 0.1265 µM", "value": 0.762},
      {"measurement": "relative viability", "setting": "RERF-LC-KJ; first compound 0.4 µM", "value": 0.869},
      {"measurement": "relative viability", "setting": "RERF-LC-KJ; first compound 1.265 µM", "value": 0.82},
      {"measurement": "relative viability", "setting": "NCI-H1755; first compound 0.04 µM", "value": 0.952},
      {"measurement": "relative viability", "setting": "NCI-H1755; first compound 0.1265 µM", "value": 1.02},
      {"measurement": "relative viability", "setting": "NCI-H1755; first compound 0.4 µM", "value": 0.98},
      {"measurement": "relative viability", "setting": "NCI-H1755; first compound 1.265 µM", "value": 0.923},
      {"measurement": "relative viability", "setting": "NCI-H1734; first compound 0.04 µM", "value": 0.74},
      {"measurement": "relative viability", "setting": "NCI-H1734; first compound 0.1265 µM", "value": 0.683},
      {"measurement": "relative viability", "setting": "NCI-H1734; first compound 0.4 µM", "value": 0.598},
      {"measurement": "relative viability", "setting": "NCI-H1734; first compound 1.265 µM", "value": 0.664},
      {"measurement": "relative viability", "setting": "NCI-H1915; first compound 0.04 µM", "value": 1.13},
      {"measurement": "relative viability", "setting": "NCI-H1915; first compound 0.1265 µM", "value": 1.07},
      {"measurement": "relative viability", "setting": "NCI-H1915; first compound 0.4 µM", "value": 1.04},
      {"measurement": "relative viability", "setting": "NCI-H1915; first compound 1.265 µM", "value": 0.737},
      {"measurement": "relative viability", "setting": "SW 1573; first compound 0.04 µM", "value": 0.687},
      {"measurement": "relative viability", "setting": "SW 1573; first compound 0.1265 µM", "value": 0.89},
      {"measurement": "relative viability", "setting": "SW 1573; first compound 0.4 µM", "value": 0.797},
      {"measurement": "relative viability", "setting": "SW 1573; first compound 1.265 µM", "value": 0.891},
      {"measurement": "relative viability", "setting": "A-427; first compound 0.04 µM", "value": 1.03},
      {"measurement": "relative viability", "setting": "A-427; first compound 0.1265 µM", "value": 1.13},
      {"measurement": "relative viability", "setting": "A-427; first compound 0.4 µM", "value": 1.06},
      {"measurement": "relative viability", "setting": "A-427; first compound 1.265 µM", "value": 0.93},
      {"measurement": "relative viability", "setting": "NCI-H1792; first compound 0.04 µM", "value": 0.681},
      {"measurement": "relative viability", "setting": "NCI-H1792; first compound 0.1265 µM", "value": 0.9},
      {"measurement": "relative viability", "setting": "NCI-H1792; first compound 0.4 µM", "value": 0.688},
      {"measurement": "relative viability", "setting": "NCI-H1792; first compound 1.265 µM", "value": 0.66},
      {"measurement": "relative viability", "setting": "LC-2-ad; first compound 0.04 µM", "value": 0.86},
      {"measurement": "relative viability", "setting": "LC-2-ad; first compound 0.1265 µM", "value": 0.906},
      {"measurement": "relative viability", "setting": "LC-2-ad; first compound 0.4 µM", "value": 0.827},
      {"measurement": "relative viability", "setting": "LC-2-ad; first compound 1.265 µM", "value": 0.573},
      {"measurement": "relative viability", "setting": "PC-3 [JPC-3]; first compound 0.04 µM", "value": 1.05},
      {"measurement": "relative viability", "setting": "PC-3 [JPC-3]; first compound 0.1265 µM", "value": 1.03},
      {"measurement": "relative viability", "setting": "PC-3 [JPC-3]; first compound 0.4 µM", "value": 1.04},
      {"measurement": "relative viability", "setting": "PC-3 [JPC-3]; first compound 1.265 µM", "value": 0.89},
      {"measurement": "relative viability", "setting": "HCC-78; first compound 0.04 µM", "value": 0.397},
      {"measurement": "relative viability", "setting": "HCC-78; first compound 0.1265 µM", "value": 0.361},
      {"measurement": "relative viability", "setting": "HCC-78; first compound 0.4 µM", "value": 0.456},
      {"measurement": "relative viability", "setting": "HCC-78; first compound 1.265 µM", "value": 0.321},
      {"measurement": "relative viability", "setting": "NCI-H2126; first compound 0.04 µM", "value": 0.787},
      {"measurement": "relative viability", "setting": "NCI-H2126; first compound 0.1265 µM", "value": 0.76},
      {"measurement": "relative viability", "setting": "NCI-H2126; first compound 0.4 µM", "value": 0.696},
      {"measurement": "relative viability", "setting": "NCI-H2126; first compound 1.265 µM", "value": 0.629},
      {"measurement": "relative viability", "setting": "HCC-15; first compound 0.04 µM", "value": 0.956},
      {"measurement": "relative viability", "setting": "HCC-15; first compound 0.1265 µM", "value": 0.837},
      {"measurement": "relative viability", "setting": "HCC-15; first compound 0.4 µM", "value": 0.849},
      {"measurement": "relative viability", "setting": "HCC-15; first compound 1.265 µM", "value": 0.49},
      {"measurement": "relative viability", "setting": "NCI-H1975; first compound 0.04 µM", "value": 0.633},
      {"measurement": "relative viability", "setting": "NCI-H1975; first compound 0.1265 µM", "value": 0.817},
      {"measurement": "relative viability", "setting": "NCI-H1975; first compound 0.4 µM", "value": 0.652},
      {"measurement": "relative viability", "setting": "NCI-H1975; first compound 1.265 µM", "value": 0.578},
      {"measurement": "relative viability", "setting": "LXF-289; first compound 0.04 µM", "value": 0.979},
      {"measurement": "relative viability", "setting": "LXF-289; first compound 0.1265 µM", "value": 1.05},
      {"measurement": "relative viability", "setting": "LXF-289; first compound 0.4 µM", "value": 0.756},
      {"measurement": "relative viability", "setting": "LXF-289; first compound 1.265 µM", "value": 0.286},
      {"measurement": "relative viability", "setting": "SK-LU-1; first compound 0.04 µM", "value": 0.901},
      {"measurement": "relative viability", "setting": "SK-LU-1; first compound 0.1265 µM", "value": 1.06},
      {"measurement": "relative viability", "setting": "SK-LU-1; first compound 0.4 µM", "value": 0.817},
      {"measurement": "relative viability", "setting": "SK-LU-1; first compound 1.265 µM", "value": 0.548},
      {"measurement": "relative viability", "setting": "NCI-H358; first compound 0.04 µM", "value": 0.767},
      {"measurement": "relative viability", "setting": "NCI-H358; first compound 0.1265 µM", "value": 0.904},
      {"measurement": "relative viability", "setting": "NCI-H358; first compound 0.4 µM", "value": 0.708},
      {"measurement": "relative viability", "setting": "NCI-H358; first compound 1.265 µM", "value": 0.381},
      {"measurement": "relative viability", "setting": "NCI-H2228; first compound 0.04 µM", "value": 0.755},
      {"measurement": "relative viability", "setting": "NCI-H2228; first compound 0.1265 µM", "value": 0.787},
      {"measurement": "relative viability", "setting": "NCI-H2228; first compound 0.4 µM", "value": 0.552},
      {"measurement": "relative viability", "setting": "NCI-H2228; first compound 1.265 µM", "value": 0.468},
      {"measurement": "relative viability", "setting": "NCI-H2347; first compound 0.04 µM", "value": 1.12},
      {"measurement": "relative viability", "setting": "NCI-H2347; first compound 0.1265 µM", "value": 1.13},
      {"measurement": "relative viability", "setting": "NCI-H2347; first compound 0.4 µM", "value": 1.11},
      {"measurement": "relative viability", "setting": "NCI-H2347; first compound 1.265 µM", "value": 0.81}
    ]}
  ]
}
